Consider four compounds from publication PMC8980814 (The Journal of Biological Chemistry, 2022).

Holding throughout (assay): whole-cell patch clamp, HEK-293T
Common to all, as to format: cell-based
(The patch-clamp technique gives a direct electrical read-out from membranes.)

Assay [1] has as its target T1, TCaV1 (Trichoplax adhaerens, UniProt A0A8K1XS01). Particulars: for inhibition at 10 µM: read-out: % block at 10 μM.
The target of assay [2] is T2, rCaV1.2 (Rattus norvegicus, UniProt P22002). The conditions noted are these: for inhibition at 10 µM: read-out: % block at 10 μM.
Assay [3] has as its target T2, rCaV1.2. Particulars: 3 mM external Ca2+, step from -100 mV to 0 mV, pH 7.4, agonist.
In assay [4] the target is T1, TCaV1. The conditions noted are these: 3 mM external Ca2+, step from -100 mV to 0 mV, pH 7.4, agonist.

T1 sequence (A0A8K1XS01 1-1822): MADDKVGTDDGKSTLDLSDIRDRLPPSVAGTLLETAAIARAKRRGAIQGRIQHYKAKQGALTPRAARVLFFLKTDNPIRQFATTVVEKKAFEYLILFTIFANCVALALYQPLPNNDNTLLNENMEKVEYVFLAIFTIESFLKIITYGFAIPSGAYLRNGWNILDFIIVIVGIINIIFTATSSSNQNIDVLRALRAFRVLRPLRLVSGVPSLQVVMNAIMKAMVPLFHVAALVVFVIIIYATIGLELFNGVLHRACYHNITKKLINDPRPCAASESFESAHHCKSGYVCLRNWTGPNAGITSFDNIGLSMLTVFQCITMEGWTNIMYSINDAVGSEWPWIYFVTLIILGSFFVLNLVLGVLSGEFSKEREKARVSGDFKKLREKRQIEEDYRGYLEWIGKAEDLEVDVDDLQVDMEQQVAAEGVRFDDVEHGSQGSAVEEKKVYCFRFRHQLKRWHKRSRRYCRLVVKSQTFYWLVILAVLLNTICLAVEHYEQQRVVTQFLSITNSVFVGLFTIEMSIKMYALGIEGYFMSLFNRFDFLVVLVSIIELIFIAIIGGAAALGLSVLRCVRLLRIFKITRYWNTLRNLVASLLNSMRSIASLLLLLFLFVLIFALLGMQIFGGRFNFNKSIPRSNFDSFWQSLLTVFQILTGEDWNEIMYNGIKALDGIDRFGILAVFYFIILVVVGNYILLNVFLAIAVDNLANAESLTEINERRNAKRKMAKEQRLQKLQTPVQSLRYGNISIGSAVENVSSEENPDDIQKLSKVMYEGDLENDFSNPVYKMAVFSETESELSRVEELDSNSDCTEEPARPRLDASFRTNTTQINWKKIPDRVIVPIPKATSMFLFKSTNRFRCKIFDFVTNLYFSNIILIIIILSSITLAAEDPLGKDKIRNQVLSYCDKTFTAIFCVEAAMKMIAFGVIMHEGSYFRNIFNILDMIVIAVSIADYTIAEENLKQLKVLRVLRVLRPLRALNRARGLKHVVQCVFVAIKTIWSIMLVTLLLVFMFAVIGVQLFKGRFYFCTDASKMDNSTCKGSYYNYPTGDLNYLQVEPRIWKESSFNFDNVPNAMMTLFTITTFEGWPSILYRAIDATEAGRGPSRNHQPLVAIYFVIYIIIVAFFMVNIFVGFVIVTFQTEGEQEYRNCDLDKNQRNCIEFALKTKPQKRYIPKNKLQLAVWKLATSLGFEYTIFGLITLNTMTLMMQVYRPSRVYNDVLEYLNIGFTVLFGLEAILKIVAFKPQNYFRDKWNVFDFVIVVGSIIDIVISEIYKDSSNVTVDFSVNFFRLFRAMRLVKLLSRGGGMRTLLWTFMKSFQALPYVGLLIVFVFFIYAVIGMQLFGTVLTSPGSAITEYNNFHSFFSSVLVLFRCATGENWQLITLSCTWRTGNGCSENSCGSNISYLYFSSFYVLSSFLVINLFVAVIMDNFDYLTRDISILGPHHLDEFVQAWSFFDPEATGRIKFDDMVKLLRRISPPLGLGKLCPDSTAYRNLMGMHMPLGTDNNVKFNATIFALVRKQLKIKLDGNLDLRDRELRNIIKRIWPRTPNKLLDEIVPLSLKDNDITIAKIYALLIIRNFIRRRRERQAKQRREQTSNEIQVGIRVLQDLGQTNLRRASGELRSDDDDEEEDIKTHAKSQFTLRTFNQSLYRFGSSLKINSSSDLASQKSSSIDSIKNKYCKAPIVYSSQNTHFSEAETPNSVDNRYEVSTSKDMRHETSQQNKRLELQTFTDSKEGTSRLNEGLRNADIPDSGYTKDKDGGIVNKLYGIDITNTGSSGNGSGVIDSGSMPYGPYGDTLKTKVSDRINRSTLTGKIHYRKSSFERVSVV
T1 sequence (P54283 whole entry partner): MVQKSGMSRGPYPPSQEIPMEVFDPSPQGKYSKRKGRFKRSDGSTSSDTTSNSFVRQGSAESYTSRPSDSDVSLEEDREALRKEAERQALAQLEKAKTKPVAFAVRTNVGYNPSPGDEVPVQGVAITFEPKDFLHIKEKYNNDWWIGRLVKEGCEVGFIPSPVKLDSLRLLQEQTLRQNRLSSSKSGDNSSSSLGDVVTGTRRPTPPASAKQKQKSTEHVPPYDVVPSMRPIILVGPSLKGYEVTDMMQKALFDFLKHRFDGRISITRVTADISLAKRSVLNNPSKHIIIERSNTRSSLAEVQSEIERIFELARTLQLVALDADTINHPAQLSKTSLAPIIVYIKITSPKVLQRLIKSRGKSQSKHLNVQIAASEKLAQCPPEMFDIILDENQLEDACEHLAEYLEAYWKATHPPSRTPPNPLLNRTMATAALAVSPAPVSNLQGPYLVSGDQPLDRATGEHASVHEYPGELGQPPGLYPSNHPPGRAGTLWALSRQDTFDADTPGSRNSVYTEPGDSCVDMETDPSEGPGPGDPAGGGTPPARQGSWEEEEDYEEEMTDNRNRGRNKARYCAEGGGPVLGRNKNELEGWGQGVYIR
T1 sequence (P54290 25-944 partner): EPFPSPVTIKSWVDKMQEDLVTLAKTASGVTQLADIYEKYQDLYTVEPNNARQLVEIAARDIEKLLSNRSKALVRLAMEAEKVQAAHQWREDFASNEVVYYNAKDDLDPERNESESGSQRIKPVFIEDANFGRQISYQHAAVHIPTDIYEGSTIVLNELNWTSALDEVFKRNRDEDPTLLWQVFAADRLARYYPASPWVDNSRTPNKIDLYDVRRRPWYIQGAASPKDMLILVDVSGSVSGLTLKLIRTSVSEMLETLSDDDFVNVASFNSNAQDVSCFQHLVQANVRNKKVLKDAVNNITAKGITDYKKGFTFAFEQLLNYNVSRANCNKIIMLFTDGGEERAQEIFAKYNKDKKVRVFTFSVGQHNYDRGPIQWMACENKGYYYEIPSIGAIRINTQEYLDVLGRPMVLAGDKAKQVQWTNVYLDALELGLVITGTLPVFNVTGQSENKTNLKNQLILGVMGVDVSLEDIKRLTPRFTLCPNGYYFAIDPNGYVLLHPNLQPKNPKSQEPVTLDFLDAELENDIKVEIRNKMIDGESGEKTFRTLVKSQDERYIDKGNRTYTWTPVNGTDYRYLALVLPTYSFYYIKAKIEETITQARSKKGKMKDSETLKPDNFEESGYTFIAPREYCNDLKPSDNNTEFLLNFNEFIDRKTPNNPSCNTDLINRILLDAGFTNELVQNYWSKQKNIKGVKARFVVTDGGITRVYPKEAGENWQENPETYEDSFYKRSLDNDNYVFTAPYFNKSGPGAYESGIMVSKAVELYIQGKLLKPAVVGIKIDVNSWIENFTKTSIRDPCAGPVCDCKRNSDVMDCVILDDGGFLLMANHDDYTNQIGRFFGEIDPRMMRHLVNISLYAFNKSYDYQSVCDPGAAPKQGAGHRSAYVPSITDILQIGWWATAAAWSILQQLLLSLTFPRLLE
T1 sequence (P54290 945-1091 partner): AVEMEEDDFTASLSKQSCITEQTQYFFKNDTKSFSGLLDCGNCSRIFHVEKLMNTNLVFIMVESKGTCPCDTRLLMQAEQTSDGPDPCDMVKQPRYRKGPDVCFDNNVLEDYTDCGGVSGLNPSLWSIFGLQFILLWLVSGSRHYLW

Take `COC(=O)C1=C(C)NC(C)=C([N+](=O)[O-])[C@@H]1c1ccccc1C(F)(F)F` [R(+)BayK 8644]: the inhibition at 100 µM in assay [1] (read-out: % block at 100 μM) amounted to 74.2 ± 0.05%; in assay [2] (read-out: % block at 100 μM), 97.3 ± 0.01%.

On to `COC(=O)C1=C(C)NC(C)=C([N+](=O)[O-])[C@H]1c1ccccc1C(F)(F)F` [S(-)BayK 8644], for which the entries for the “fold-increase in peak current at 5 μM” value in assay [3] and in assay [4] were 1.64 ± 0.32 fold and 1.11 ± 0.024 fold, respectively.

Turning to `COC(=O)C1=C(C)NC(C)=C(C(=O)OC(C)C)C1c1cccc2nonc12` (centres unmarked) [isradipine], the inhibition at 10 µM came out at 11.5 ± 2.2% in assay [1] and 95 ± 6.1% in assay [2].

As to `COC(=O)C1=C(C)NC(C)=C(C(=O)OC)C1c1ccccc1[N+](=O)[O-]` [nifedipine], the inhibition at 10 µM in assay [1] was determined as 5.8 ± 3.6%; in assay [2], 99.7 ± 0.1%.
